Results on five compounds are retold here after US11724980B2, “Quinones having high capacity retention for use as electrolytes in aqueous redox flow batteries” (President and Fellows of Harvard College, priority 2018, dated 2023).

Values after ≈ are worked out from the molar mass of the structure shown. Like-named read-outs stand apart in the source and are kept apart here.

A short description of data set [1]: physchem. The data set is classed as physicochemical. As to conditions: for solubility: thermodynamic from solid. As to the method: Solubility limits of all DBEAQ isomers were measured in their oxidized forms by adding the potassium salt of DBEAQ (prepared by reacting DBEAQ with potassium hydroxide in water) until no further solid could be dissolved. After filtering the mixture through a PTFE 0.45 μm syringe filter, a saturated solution of DBEAQ in KOH was obtained. The saturated solution was then diluted by a known amount, and the concentration was evaluated by UV-Vis (Ocean Optics Flame-S Spectrometer Assembly) at 280 and 364 nm. […]
The solubility limit of DPPEAQ was measured in the oxidized form by adding the potassium salt of DPPEAQ (prepared by reacting DPPEAQ with potassium hydroxide in water) until no further solid could be dissolved. The mixture was adjusted to pH 9. After filtering the mixture through a PTFE 0.45 μm syringe filter, a saturated solution of DPPEAQ at pH 9 was obtained. The saturated solution was then diluted by a known amount while maintaining a pH of 9, and the concentration was evaluated by UV-Vis (Agilent Cary 60 spectrophotometer). The concentration was calculated according to a pre-calibrated absorbance-concentration curve of known concentrations of DPPEAQ at pH 9.

Data set [2] can be described thus: Unbalanced compositionally-symmetric cell cycling. Particulars: for temporal fade rate: 0.10 M, pH 12 (0.01 M KOH). As to the method: As a direct probe of the effect of O-alkylation of anthraquinone on its chemical stability, 2,6-DBEAQ was cycled potentiostatically in a volumetrically unbalanced compositionally-symmetric cell configuration.
Potentiostatic symmetric cell cycling was performed according to a reported procedure^8 in order to assess the temporal chemical stability of DBEAQ, independent of any variations in apparent capacity as a result of changes to membrane resistance, and in a configuration where there is negligible water or reactant crossover due to the same DBEAQ concentration being used in both electrolytes. […] 5 mL of the resulting electrolyte was used as the capacity-limiting side of a volumetrically unbalanced compositionally-symmetric cell, while the remaining 10 mL was used as the non-capacity-limiting side, i.e., with twice the nominal capacity of the capacity-limiting side. […].
The cycling stability of the DPPEAQ electrolyte was also studied by a previously published symmetric cell method.^24 Although the oxidized form of DPPEAQ is readily soluble at pH 9, proton-coupled electron transfer raises the pH of the electrolyte when it is reduced. Such pH fluctuations can produce misleading results in symmetric cell testing unless the starting pH is above the cutoff point for proton-coupled electron transfer.

Data set [3] can be described thus: CV simulation as two one-electron reductions. Type of data set: physicochemical. Particulars: same AQ:AQ2− ratio, from E1-E2 separations. As to the method:
FIG. 6. Capacitance-corrected CV of 5 mM 2,6-DBEAQ in 1 M KOH (solid grey line). The dashed red line represents the simulated total current arising from two successive one-electron reductions with reduction potentials of −0.517 and −0.511 V vs. SHE, according to the procedure outlined in a previous publication.^1 Each simulated reduction has a rate constant ko=7×10^−3 cm/s and α=0.5.
A first CV experiment was performed in which 2,6-DBEAQ was dissolved in pH 14 KOH solution at a concentration of 5 mM. CV measurements were plotted in FIG. 5A and include results for the isomers of 2,6-DBEAQ.
Following our previous study on 2,6-DHAQ^17 and literature reports^1,18 on quinone electrochemistry in the absence of proton donors, we simulated the CV of 2,6-DBEAQ as representing two reversible electron transfer steps at two different potentials E1 and E2. The separation between simulated redox potentials for the first (E1) and second (E2) electron reductions for 2,6-DBEAQ is considerably narrower than the corresponding peak separation for 2,6-DHAQ^17 (6 mV vs. 60 mV).
The pH dependence of the proton-coupled electron transfer (POET) redox reaction for a generalized anthraquinone (AQ) is often visualized by the nine-membered square scheme (FIG. 7). The horizontal direction indicates electron transfer (ET), and the vertical direction indicates proton transfer (PT or protonation). Under strongly alkaline conditions, where the pH is higher than the second pKa (pKa2) of the reduced AQ (AQ^2−), no protonation of the semiquinone anion will take place, and reduction proceeds via two ET steps, from AQ to a semiquinone (AQ-^●) at E1, and from AQ-^● to AQ^2− at E2 which is typically <E1. Depending on the value of E1-E2, the mechanism of AQ reduction in alkaline conditions can either be a concerted one-step, two-electron process or two single-electron processes. […]

For data set [4] the following is noted: pH 14 KOH, literature (ref 3); cited from earlier work.
The conditions of data set [5]: cited from earlier work.
For data set [6] the following is noted: previous study (ref 3/17); cited from earlier work.
The conditions of data set [7]: cited from earlier work. This is another data set of the same source.
Data set [8] in a line: Rotating disk electrode study with Levich analysis. As to conditions: 5 mM in 1 M KOH, Levich plot. Type of data set: physicochemical. As to the method: Glassy carbon was used as the working electrode for all three-electrode CV tests. RDE experiments were conducted using a Pine Instruments Modulated Speed Rotator AFMSRCE equipped with a 5 mm diameter glassy carbon working electrode, a Ag/AgCl reference electrode (BASi, pre-soaked in 3 M NaCl solution), and a graphite counter electrode. The electrode was rotated at a specific speed while the voltage was linearly swept from −0.4 to −0.11 V vs. Ag/AgCl (FIG. 4A). […]. RDE experiments were conducted using a Pine Instruments Modulated Speed Rotator AFMSRCE equipped with a 5 mm diameter glassy carbon working electrode, a Ag/AgCl reference electrode (BASi, pre-soaked in a 3 M KCl solution), and a graphite counter electrode. […]

A short description of data set [9]: Cyclic voltammetry on glassy carbon electrode. Type of data set: physicochemical. As to the method:
Glassy carbon was used as the working electrode for all three-electrode CV tests. RDE experiments were conducted using a Pine Instruments Modulated Speed Rotator AFMSRCE equipped with a 5 mm diameter glassy carbon working electrode, a Ag/AgCl reference electrode (BASi, pre-soaked in 3 M NaCl solution), and a graphite counter electrode. The electrode was rotated at a specific speed while the voltage was linearly swept from −0.4 to −0.11 V vs. Ag/AgCl (FIG. 4A). […].
A second CV experiment was performed in which 2,6-DBEAQ was dissolved in pH 14 KOH solution at a concentration of 2 mM. CV measurements were plotted in FIG. 4C. The standard equilibrium potential was determined to be −0.49 V vs. SHE. The separation between the peaks in the CV curves was 42 mV, indicating fairly rapid and reversible electrochemical reactions at the surface of the electrodes.

Data set [10] can be described thus: physchem. Particulars: 0.1 M. Type of data set: physicochemical. As to the method:
FIGS. 24A-24D. Comparison of the stability of DPPEAQ with respect to alkyl chain cleavage to that of 2,6-DBEAQ at pH 14. ^1H NMR spectra (500 MHz, 10 mM NaCH3SO3 internal standard, δ 2.6 ppm) of (A) DPPEAQ at pH 14; (B) DPPEAQ at pH 14, treated for 5.5 days at 95° C. and 0.1 M concentration; (C) 2,6-DBEAQ at pH 14; (D) 2,6-DBEAQ at pH 14, treated for 5.5 days at 95° C. and 0.1 M concentration. […] The relative integrals and splitting of the peaks in the spectra of DPPEAQ after treatment are consistent with the products of (3-hydroxypropyl)phosphonate cleavage. Samples of DPPEAQ at 0.1 M concentration and pH 14 in both the oxidized and reduced form were stored in FEP bottles and heated in an oven at 65° C. for 2 weeks. The extent of decomposition was determined by ^1H NMR, with peak integrals measured relative to an internal standard of NaCH3SO3 prepared at 10 mM concentration in D2O.
By performing elevated temperature chemical stability studies, we have identified that the cleavage of γ-hydroxybutyrate is involved in the decomposition of the oxidized form of 2,6-DBEAQ (FIGS. 10A-10C and FIGS. 11A-11D), and we have characterized the time course of γ-hydroxybutyrate cleavage at pH 12 and pH 14 and at 0.1 M and 0.5 M concentration (FIG. 12 and FIGS. 13A-13C). […]; these observations are consistent with long redox flow battery lifetime at typical operating cell conditions.
We designed an analogue of 2,6-DBEAQ but with phosphonate-terminated functional groups, DPPEAQ, appearing to deliver both of these desired outcomes.
The differing relative stabilities of DPPEAQ and 2,6-DBEAQ at pH 12 (at 95° C. and 0.1 M concentration), in contrast to the similar extent of their observed decomposition at pH 14, may be due to a competition between multiple decomposition mechanisms that vary in a pH-dependent manner. The concentration of hydroxide ions at pH 14 is tenfold higher than the concentration of either molecule at 0.1 M, as opposed to tenfold lower at pH 12. In particular, we propose a hydroxide-mediated nucleophilic substitution reaction (SNAr or SN2) that dominates the decomposition of both molecules at pH 14. However, at a lower pH of 12, an intramolecular reaction with carboxylate acting as the nucleophile dominates in the decomposition of 2,6-DBEAQ, while no analogous intramolecular reaction of DPPEAQ at pH 12 can take place due to much weaker nucleophilicity of bulked phosphonate compared with carboxylate. The difference in the dominant mechanisms of 2,6-DBEAQ decomposition at pH 12 and 14 that we are proposing is also consistent with the observation that the initial rate of degradation is not 100-fold slower at pH 12 relative to pH 14. […] In addition, the operability at lower pH serves to decrease the corrosion of battery systems and enable the use of less expensive materials.

Turning to `O=C(O)CCCOc1ccc2c(c1OCCCC(=O)O)C(=O)c1ccccc1C2=O` [1,2-DBEAQ], the “Solubility (M) at pH 14 (pH 12)” value in “physchem [1]” is on record as 0.9 M. For the same compound, the temporal fade rate entry in data set [2] is reported as “greater than 0.1 %/day”.

Take `O=C(O)CCCOc1cccc2c1C(=O)c1c(OCCCC(=O)O)cccc1C2=O` [1,8-DBEAQ]: the “Solubility (M) at pH 14 (pH 12)” value in “physchem [1]” is reported as 0.75 M. Besides, the temporal fade rate in data set [2] is more than 10 %/day.

With `O=C1c2ccc(O)cc2C(=O)c2ccc(O)cc21` [2,6-DHAQ, 2,6-dihydroxyanthraquinone], the solubility in the data set “physchem [1]” (pH 12, aqueous buffer) stood at 100 mM (≈ 24 mg/mL); in the data set “physchem [1]” (pH 14, aqueous buffer), 60 mM (≈ 14.4 mg/mL). The “Keq_comp for semiquinone formation, times higher than for 2,6-DBEAQ” value in [3] is 2.83 times. Also, the “temporal capacity fade rate” value in [2] (pH 14 (1 M KOH), 0.10 M (2,6-DBEAQ also 0.65 M)) turned out to be 5 %/day. Besides, the room temperature solubility in [4] is 0.6 M. In addition, the reduction potential in data set [5] (comparison value for 2,6-DHAQ) is recorded as −680 mV vs. SHE. The redox peak separation in data set [5] (literature (ref 3)) is approximately 90 mV. For the same compound, the E1-E2 separation in data set [6] is 60 mV. The capacity fade rate in [7] (reported (refs 21,22)) was 5 %/day.

For the compound `O=C1c2ccc(S(=O)(=O)O)cc2C(=O)c2ccc(S(=O)(=O)O)cc21` [AQDS, 9,10-anthraquinone-2,6-disulfonate], in data set [7] (lowest previously reported quinone-based electrolyte (refs 10,11)), the temporal fade rate is given as 0.1-0.2 %/day.

For the compound `O=C1c2ccc(OCCCP(=O)(O)O)cc2C(=O)c2ccc(OCCCP(=O)(O)O)cc21` [DPPEAQ, (((9,10-dioxo-9,10-dihydroanthracene-2,6-diyl)bis(oxy))bis(propane-3,1-diyl))bis(phosphonic acid)], the solubility in the data set “physchem [1]” (pH 9, aqueous buffer, pH 9, read-out: solubility of the oxidized form) was determined as 750 mM (≈ 363 mg/mL). In addition, the “diffusion coefficient for the oxidized form” value in [8] is given as 1.37×10^−6 cm^2/s. The “pH above which the potential is pH-independent” value in [9] (Pourbaix diagram) is recorded as approximately 12.4. The “redox potential (E1/2)” value in data set [9] (buffered pH 9) was −0.39 V vs. SHE; in data set [9] (buffered pH 12), −0.47 V vs. SHE; in [9] (pH 9 unbuffered aqueous solution) it was −0.47 V vs. SHE; in data set [9] (pH 12 unbuffered aqueous solution) it was −0.49 V vs. SHE. In data set [9] (fit to data below pH 12), this compound had a Pourbaix diagram slope of −30 mV/pH. The compound also gave a capacity fade in data set [2] (0.1 M, pH 13, cycled 6 days) of 0.02 %/day. Also, the decomposition result in the data set “physchem [10]” (pH 9, 6 days at 95° C.) was “no significant decomposition”; in “physchem [10]” (pH 12, 6 days at 95° C.), “no significant decomposition”; in the data set “physchem [10]” (pH 14, 5.5 days at 95° C.) it was 45%. Also, the “chemical stability of the reduced form” value in “physchem [10]” (pH 14, 12 days at 65° C.) is “robust chemical stability”.

One may read the solubility as the concentration that dissolves in the medium under given conditions.
